Laboratory results: patent US5096929A, “2-amino-1,2,3,4-tetrahydronaphthalene derivatives with cardiovascular activity, process for their preparation and pharmaceutical compositions containing them” (Chiesi Farmaceutici S.p.A., priority 1989, dated 1992)
Structures can show the parent of a compound that is named as a salt. Where two headings read alike, the source gives them in different places.

Assay: Evaluation of acute toxicities, mouse
Settings: in vivo, male, read-out: Acute toxicity mean LD50
Source text: Evaluation of acute toxicities

Compound `COc1ccc2c(c1OC)CCC(N[C@@H](C)[C@H](O)c1ccc(O)cc1)C2` (relative stereo) [CHF 1255, Erythro-5,6-Dimethoxy-2-[2-(4-hydroxyphenyl)-2-hydroxy-1-mehylethylamino]1,2,3,4-tetrahydronaphthalene hydrochloride] has an LD50 (iv, i.v.) of 65 mg/kg and an LD50 (po, os) of 325 mg/kg.
